Tests used:
Experiment in all cases: relative viability (nuclei count vs DMSO), 5 days (fraction); higher = more cells survive
201T = test system: 201T
Method in brief: (§1)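 Values are medians from duplicate plates. Each reflects relative viability, defined as the nuclei count of treated wells over that of vehicle wells. Lung cancer cell lines in 1536-well plates were pin-tool dosed one day after seeding with one drug alone or with a fixed anchor-drug dose plus five library-drug doses (not always all listed) in √10 steps, then fixed, stained and imaged at 4× after 5 days.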

A-427 = test system: A-427
Method in brief: as §1

COR-L23 = test system: COR-L23
Method in brief: as §1

H3255 = test system: H3255
Method in brief: as §1

HCC-44 = test system: HCC-44
Method in brief: as §1

LC-2-ad = test system: LC-2-ad
Method in brief: as §1

LCLC-103H = test system: LCLC-103H
Method in brief: as §1

LCLC-97TM1 = test system: LCLC-97TM1
Method in brief: as §1

LK-2 = test system: LK-2
Method in brief: as §1

LU99A = test system: LU99A
Method in brief: as §1

NCI-H1563 = test system: NCI-H1563
Method in brief: as §1

NCI-H1650 = test system: NCI-H1650
Method in brief: as §1

NCI-H1793 = test system: NCI-H1793
Method in brief: as §1

NCI-H2228 = test system: NCI-H2228
Method in brief: as §1

NCI-H2347 = test system: NCI-H2347
Method in brief: as §1

NCI-H23 = test system: NCI-H23
Method in brief: as §1

NCI-H460 = test system: NCI-H460
Method in brief: as §1

NCI-H596 = test system: NCI-H596
Method in brief: as §1

NCI-H727 = test system: NCI-H727
Method in brief: as §1

PC-14 = test system: PC-14
Method in brief: as §1

PC-3 [JPC-3] = test system: PC-3 [JPC-3]
Method in brief: as §1

SW 1573 = test system: SW 1573
Method in brief: as §1

SW 900 = test system: SW 900
Method in brief: as §1

O=c1cc(-c2cccc3c2Sc2ccccc2S3)oc(N2CCOCC2)c1 + COc1cccc2cc(-c3nc([C@H]4CC[C@H](C(=O)O)CC4)n4ncnc(N)c34)[nH]c12 [OSI-027] (partner 0.5 µM)
relative viability (201T; first compound 0.08 µM): 0.876 | relative viability (201T; first compound 0.8 µM): 0.591 | relative viability (201T; first compound 2.53 µM): 0.695 | relative viability (201T; first compound 8 µM): 0.734 | relative viability (A-427; first compound 0.08 µM): 0.48 | relative viability (A-427; first compound 0.253 µM): 0.48 | relative viability (A-427; first compound 0.8 µM): 0.573 | relative viability (A-427; first compound 8 µM): 0.475 | relative viability (COR-L23; first compound 0.08 µM): 0.8 | relative viability (COR-L23; first compound 0.253 µM): 1.21 | relative viability (COR-L23; first compound 0.8 µM): 0.892 | relative viability (COR-L23; first compound 2.53 µM): 0.801 | relative viability (COR-L23; first compound 8 µM): 1 | relative viability (H3255; first compound 0.08 µM): 0.61 | relative viability (H3255; first compound 0.253 µM): 0.604 | relative viability (H3255; first compound 0.8 µM): 0.541 | relative viability (H3255; first compound 2.53 µM): 0.569 | relative viability (H3255; first compound 8 µM): 0.671 | relative viability (HCC-44; first compound 0.08 µM): 0.419 | relative viability (HCC-44; first compound 0.253 µM): 0.561 | relative viability (HCC-44; first compound 2.53 µM): 0.343 | relative viability (HCC-44; first compound 8 µM): 0.499 | relative viability (LC-2-ad; first compound 0.08 µM): 0.814 | relative viability (LC-2-ad; first compound 0.253 µM): 0.934 | relative viability (LC-2-ad; first compound 0.8 µM): 0.792 | relative viability (LC-2-ad; first compound 2.53 µM): 0.741 | relative viability (LC-2-ad; first compound 8 µM): 0.727 | relative viability (LCLC-103H; first compound 0.08 µM): 0.434 | relative viability (LCLC-103H; first compound 0.253 µM): 0.489 | relative viability (LCLC-103H; first compound 0.8 µM): 0.504 | relative viability (LCLC-103H; first compound 2.53 µM): 0.481 | relative viability (LCLC-103H; first compound 8 µM): 0.454 | relative viability (LCLC-97TM1; first compound 0.08 µM): 0.48 | relative viability (LCLC-97TM1; first compound 0.253 µM): 0.407 | relative viability (LCLC-97TM1; first compound 0.8 µM): 0.539 | relative viability (LCLC-97TM1; first compound 2.53 µM): 0.519 | relative viability (LCLC-97TM1; first compound 8 µM): 0.575 | relative viability (LK-2; first compound 0.08 µM): 0.174 | relative viability (LK-2; first compound 0.253 µM): 0.189 | relative viability (LK-2; first compound 0.8 µM): 0.188 | relative viability (LK-2; first compound 2.53 µM): 0.175 | relative viability (LK-2; first compound 8 µM): 0.176 | relative viability (LU99A; first compound 0.08 µM): 0.282 | relative viability (LU99A; first compound 0.253 µM): 0.285 | relative viability (LU99A; first compound 0.8 µM): 0.308 | relative viability (LU99A; first compound 2.53 µM): 0.335 | relative viability (LU99A; first compound 8 µM): 0.303 | relative viability (NCI-H1563; first compound 0.08 µM): 0.728 | relative viability (NCI-H1563; first compound 0.253 µM): 0.756 | relative viability (NCI-H1563; first compound 0.8 µM): 0.77 | relative viability (NCI-H1563; first compound 2.53 µM): 0.717 | relative viability (NCI-H1563; first compound 8 µM): 0.676 | relative viability (NCI-H1650; first compound 0.08 µM): 0.615 | relative viability (NCI-H1650; first compound 0.253 µM): 0.593 | relative viability (NCI-H1650; first compound 0.8 µM): 0.506 | relative viability (NCI-H1650; first compound 2.53 µM): 0.521 | relative viability (NCI-H1650; first compound 8 µM): 0.561 | relative viability (NCI-H1793; first compound 0.08 µM): 0.227 | relative viability (NCI-H1793; first compound 0.253 µM): 0.29 | relative viability (NCI-H1793; first compound 0.8 µM): 0.248 | relative viability (NCI-H1793; first compound 2.53 µM): 0.227 | relative viability (NCI-H1793; first compound 8 µM): 0.267 | relative viability (NCI-H2228; first compound 0.08 µM): 0.554 | relative viability (NCI-H2228; first compound 0.253 µM): 0.719 | relative viability (NCI-H2228; first compound 0.8 µM): 0.538 | relative viability (NCI-H2228; first compound 2.53 µM): 0.389 | relative viability (NCI-H2228; first compound 8 µM): 0.544 | relative viability (NCI-H2347; first compound 0.08 µM): 0.421 | relative viability (NCI-H2347; first compound 0.253 µM): 0.454 | relative viability (NCI-H2347; first compound 0.8 µM): 0.297 | relative viability (NCI-H2347; first compound 2.53 µM): 0.431 | relative viability (NCI-H2347; first compound 8 µM): 0.297 | relative viability (NCI-H23; first compound 0.08 µM): 0.511 | relative viability (NCI-H23; first compound 0.253 µM): 0.739 | relative viability (NCI-H23; first compound 0.8 µM): 0.519 | relative viability (NCI-H23; first compound 2.53 µM): 0.54 | relative viability (NCI-H23; first compound 8 µM): 0.697 | relative viability (NCI-H460; first compound 0.08 µM): 0.605 | relative viability (NCI-H460; first compound 0.253 µM): 0.994 | relative viability (NCI-H460; first compound 0.8 µM): 0.643 | relative viability (NCI-H460; first compound 2.53 µM): 0.568 | relative viability (NCI-H460; first compound 8 µM): 0.527 | relative viability (NCI-H596; first compound 0.08 µM): 0.69 | relative viability (NCI-H596; first compound 0.253 µM): 0.803 | relative viability (NCI-H596; first compound 0.8 µM): 0.695 | relative viability (NCI-H596; first compound 2.53 µM): 0.683 | relative viability (NCI-H596; first compound 8 µM): 0.662 | relative viability (NCI-H727; first compound 0.08 µM): 0.631 | relative viability (NCI-H727; first compound 0.253 µM): 0.673 | relative viability (NCI-H727; first compound 0.8 µM): 0.586 | relative viability (NCI-H727; first compound 2.53 µM): 0.563 | relative viability (NCI-H727; first compound 8 µM): 0.64 | relative viability (PC-14; first compound 0.08 µM): 0.884 | relative viability (PC-14; first compound 0.253 µM): 1.07 | relative viability (PC-14; first compound 0.8 µM): 0.714 | relative viability (PC-14; first compound 2.53 µM): 0.772 | relative viability (PC-14; first compound 8 µM): 1.02 | relative viability (PC-3 [JPC-3]; first compound 0.08 µM): 0.763 | relative viability (PC-3 [JPC-3]; first compound 0.253 µM): 0.8 | relative viability (PC-3 [JPC-3]; first compound 0.8 µM): 0.783 | relative viability (PC-3 [JPC-3]; first compound 2.53 µM): 0.698 | relative viability (PC-3 [JPC-3]; first compound 8 µM): 0.787 | relative viability (SW 1573; first compound 0.08 µM): 0.514 | relative viability (SW 1573; first compound 0.253 µM): 0.797 | relative viability (SW 1573; first compound 0.8 µM): 0.703 | relative viability (SW 1573; first compound 2.53 µM): 0.613 | relative viability (SW 1573; first compound 8 µM): 0.728 | relative viability (SW 900; first compound 0.08 µM): 0.573 | relative viability (SW 900; first compound 0.253 µM): 0.697 | relative viability (SW 900; first compound 0.8 µM): 0.459 | relative viability (SW 900; first compound 2.53 µM): 0.494 | relative viability (SW 900; first compound 8 µM): 0.596

Reference: the supplement of paper PMC10307832
